Key:
Assay type in all cases: in vivo
[1] = tested on: Helianthus annuus (common sunflower); experiment: Greenhouse postemergence herbicidal effect, common sunflower (HELAN); settings: Example 5; Glufosinate 70 g ai/ha alone; 20-22 d
Excerpt: (§1) Greenhouse Trial Methodology—Evaluation of Postemergence Herbicidal Effect
(§2) Seeds of the desired test plant species were planted in a 90:10% v/v (volume/volume) mixture of PRO-MIX® BX (Premier Tech Horticulture, Quakertown, Pa., USA) and PROFILE® GREENS GRADE™ (Profile Products LLC, Buffalo Grove, Ill., USA) planting mixture, which typically has a pH of 5.2 to 6.2 and an organic matter content of at least 50 percent, in plastic pots with a surface area of 103.2 square centimeters (cm^2). In some aspects, to ensure good germination and healthy plants, a fungicide treatment and/or other chemical or physical treatment was applied. The plants were grown for 7-36 days (d) in a greenhouse with an approximate 14-hour (h) photo-period which was maintained at about 23° C. during the day and 22° C. during the night. Nutrients and water were added on a regular basis and supplemental lighting was provided with overhead metal halide 1000-Watt lamps as necessary. The plants were employed for testing when they reached the second or third true leaf stage.
(§3) Emulsifiable concentrates of each of each pyridine carboxylate herbicide (Compound A or Compound B) were prepared at 100 grams acid equivalent per liter (g ae/L). The emulsifiable concentrates also included a safener, cloquintocet-mexyl, at 120 grams active ingredient per liter (g ai/L). […]
(§4) The treated plants and control plants were placed in a greenhouse as described above and watered by sub-irrigation to prevent wash-off of the test compounds. After 20-22 d, the condition of the test plants as compared with that of the control plants was determined visually and scored on a scale of 0 to 100 percent where 0 corresponds to no injury and 100 corresponds to complete kill.

[2] = tested on: Amaranthus retroflexus (pigweed); experiment: Greenhouse postemergence herbicidal effect, pigweed (AMARE); settings: Example 6; Glufosinate 112.5 g ai/ha alone; 20-22 d
Excerpt: as §1, §2
(§5) Emulsifiable concentrates of each of each pyridine carboxylate herbicide (Compound A or Compound B) were prepared at 100 grams acid equivalent per liter (g ae/L). The emulsifiable concentrates also included a safener, cloquintocet-mexyl, at 120 grams active ingredient per liter (g ai/L). An aliquot of each emulsifiable concentrate was placed in a 25 mL glass vial and diluted with an aqueous mixture of 1.25% (v/v) ACTIROB® B esterified rapeseed oil (Bayer Crop Science, Research Triangle Park, N.C., USA) or MSO® Concentrate with LECI-TECH® methylated soybean oil (Loveland Products, Loveland, Colo., USA) to obtain concentrated stock solutions at the highest application rate for each herbicide, based upon a 12 milliliter (mL) application volume at a rate of 187 liters per hectare (L/ha). The concentrated stock solutions were further diluted with an aqueous mixture of 1.25% v/v ACTIROB® B or MSO® Concentrate with LECI-TECH® to obtain stock solutions at reduced application rates for each herbicide. Spray solutions of the herbicide combinations (Compound A or Compound B plus glyphosate or glufosinate) were prepared by adding weighed amounts or aliquots of the glyphosate or glufosinate to the stock solutions of Compound A or Compound B to form 12-mL spray solutions in two-way combinations.
(§6) The spray solutions were applied to the plant material with an overhead Mandel track sprayer equipped with 8002E nozzles calibrated to deliver 187 L/ha over an application area of 0.503 square meters (m^2) at a spray height of 18 inches (43 centimeters (cm)) above the average plant canopy. Control plants were sprayed in the same manner with the solvent blank. All pyridine carboxylate herbicide (component a) application rates are given as “g ae/ha” and all glyphosate or glufosinate (component b) application rates are given as “g ai/ha.”
as §4

[3] = tested on: Chenopodium album L. (common lambsquarters); experiment: Greenhouse postemergence herbicidal effect, common lambsquarters (CHEAL); settings: Glufosinate 112.5 g ai/ha alone, 20-22 d
Excerpt: as §1, §2, §5, §6, §4

[4] = tested on: Hordeum vulgare (spring barley); experiment: Greenhouse postemergence phytotoxicity on crop, spring barley (HORVS); settings: Example 6; Glufosinate 112.5 g ai/ha alone; 20-22 d
Excerpt: as §1, §2, §5, §6, §4

Kochia scoparia (kochia) = experiment: Greenhouse postemergence herbicidal effect, kochia (KCHSC); settings: 20-22 d
Excerpt: as §1, §2, §5, §6, §4

[5] = tested on: Sorghum vulgare (grain sorghum); experiment: Greenhouse postemergence herbicidal effect, grain sorghum (SORVU); settings: Example 5; Glufosinate 70 g ai/ha alone; 20-22 d
Excerpt: as §1, §2, §3, §4

[6] = tested on: Matricaria chamomilla (wild chamomile); experiment: Greenhouse postemergence herbicidal effect, wild chamomile (MATCH); settings: Example 6; Glufosinate 112.5 g ai/ha alone; 20-22 d
Excerpt: as §1, §2, §5, §6, §4

[7] = tested on: Cyperus esculentus (nutsedge); experiment: Greenhouse postemergence herbicidal effect, nutsedge (CYPES); settings: Example 5; Glufosinate 70 g ai/ha alone; 20-22 d
Excerpt: as §1, §2, §3, §4

[8] = tested on: Brassica napus (spring rape); experiment: Greenhouse postemergence herbicidal effect, spring rape (BRSNN); settings: Example 4; Glufosinate 112.5 g ai/ha alone; 20-22 d
Excerpt: as §1, §2, §5, §6, §4

[9] = tested on: Viola tricolor (wild pansy); experiment: Greenhouse postemergence herbicidal effect, wild pansy (VIOTR); settings: 20-22 d
Excerpt: as §1, §2, §5, §6, §4

[10] = tested on: Cirsium arvense (Canadian thistle); experiment: Greenhouse postemergence herbicidal effect, Canadian thistle (CIRAR); settings: 20-22 d
Excerpt: as §1, §2, §5, §6, §4

[11] = tested on: Triticum aestivum (spring wheat); experiment: Greenhouse postemergence phytotoxicity on crop, spring wheat (TRZAS); settings: Example 6; Glufosinate 112.5 g ai/ha alone; 20-22 d
Excerpt: as §1, §2, §5, §6, §4

[12] = tested on: Polygonum convolvulus (wild buckwheat); experiment: Greenhouse postemergence herbicidal effect, wild buckwheat (POLCO); settings: 20-22 d
Excerpt: as §1, §2, §5, §6, §4

[13] = tested on: Sinapis arvensis (wild mustard); experiment: Greenhouse postemergence herbicidal effect, wild mustard (SINAR); settings: Example 6; Glufosinate 112.5 g ai/ha alone; 20-22 d
Excerpt: as §1, §2, §5, §6, §4

[14] = tested on: Euphorbia heterophylla (poinsettia); experiment: Greenhouse postemergence herbicidal effect, poinsettia (EPHHL); settings: Example 5; Glufosinate 70 g ai/ha alone; 20-22 d
Excerpt: as §1, §2, §3, §4

[15] = tested on: Abutilon theophrasti (velvetleaf); experiment: Greenhouse postemergence herbicidal effect, velvetleaf (ABUTH); settings: Example 4; Glufosinate 112.5 g ai/ha alone; 20-22 d
Excerpt: as §1, §2, §3, §4

[16] = tested on: Setaria faberi (giant foxtail); experiment: Greenhouse postemergence herbicidal effect, giant foxtail (SETFA); settings: Example 4; Glufosinate 112.5 g ai/ha alone; 20-22 d
Excerpt: as §1, §2, §5, §6, §4

[17] = tested on: Salsola kali (Russian thistle); experiment: Greenhouse postemergence herbicidal effect, Russian thistle (SASKR); settings: Example 6; Glufosinate 112.5 g ai/ha alone; 20-22 d
Excerpt: as §1, §2, §5, §6, §4

[18] = tested on: Rumex obtusifolius (broad-leaf dock); experiment: Greenhouse postemergence herbicidal effect, broad-leaf dock (RUMOB); settings: Example 5; Glufosinate 70 g ai/ha alone; 20-22 d
Excerpt: as §1, §2, §3, §4

[19] = tested on: Stellaria media (chickweed); experiment: Greenhouse postemergence herbicidal effect, chickweed (STEME); settings: Example 5; Glufosinate 70 g ai/ha alone; 20-22 d
Excerpt: as §1, §2, §3, §4

[20] = tested on: Brassica napus (winter rape); experiment: Greenhouse postemergence herbicidal effect, winter rape (BRSNW); settings: Example 6; Glufosinate 112.5 g ai/ha alone; 20-22 d
Excerpt: as §1, §2, §5, §6, §4

[21] = tested on: Echinochloa crus-galli (barnyardgrass); experiment: Greenhouse postemergence herbicidal effect, barnyardgrass (ECHCG); settings: Example 5; Glufosinate 70 g ai/ha alone; 20-22 d
Excerpt: as §1, §2, §3, §4

[22] = tested on: Ipomoea hederacea (ivyleaf morningglory); experiment: Greenhouse postemergence herbicidal effect, ivyleaf morningglory (IPOHE); settings: Example 5; Glufosinate 70 g ai/ha alone; 20-22 d
Excerpt: as §1, §2, §3, §4

[23] = Example 4, Glufosinate 112.5 g ai/ha alone
[24] = Example 5, Glufosinate 70 g ai/ha alone
[25] = Example 6, Glufosinate 112.5 g ai/ha alone

CP(=O)(O)CCC(N)C(=O)O (stereo not shown) [Glufosinate, 2-amino-4-(hydroxy(methyl)phosphinyl)butanoic acid]
% visual injury, Obs [1]: 98% | % visual injury, Obs [2]: 65% | % visual injury, Obs ([3]; Example 4): 5% | % visual injury, Obs ([3]; Example 6): 5% | % visual injury, Obs [4]: 35% | % visual injury, Obs (Kochia scoparia (kochia); [23]): 10% | % visual injury, Obs (Kochia scoparia (kochia); [24]): 15% | % visual injury, Obs (Kochia scoparia (kochia); [25]): 25% | % visual injury, Obs [5]: 58% | % visual injury, Obs [6]: 65% | % visual injury, Obs [7]: 13% | % visual injury, Obs [8]: 33% | % visual injury, Obs [9, 23]: 23% | % visual injury, Obs [9, 24]: 20% | % visual injury, Obs [10, 23]: 8% | % visual injury, Obs [10, 24]: 75% | % visual injury, Obs [10, 25]: 73% | % visual injury, Obs [11]: 35% | % visual injury, Obs [12, 23]: 10% | % visual injury, Obs [12, 24]: 70% | % visual injury, Obs [12, 25]: 15% | % visual injury, Obs [13]: 25% | % visual injury, Obs [14]: 80% | % visual injury, Obs [15]: 20% | % visual injury, Obs [16]: 33% | % visual injury, Obs [17]: 53% | % visual injury, Obs [18]: 73% | % visual injury, Obs [19]: 68% | % visual injury, Obs [20]: 20% | % visual injury, Obs [21]: 30% | % visual injury, Obs [22]: 82%
